As a reminder, the IC50 is the point on the concentration scale where inhibition reaches its midpoint. A low value points to greater potency.

The target in assay [1] is GST-JNK3 (Homo sapiens, UniProt P53779). Description: JNK3 in vitro assay (33P incorporation into c-jun, SPA). Type of assay: biochemical. As for the experimental part:
The phosphorylation of c-jun by JNK2 or JNK3 may be followed by monitoring the incorporation of ^33P into c-jun following the protocol below. The inhibitory activity of the compounds according to formula I, in respect of c-jun phosphorylation through JNK, is determined by calculating the phosphorylation activity of a JNK in the presence or absence of the test compounds according to formula I.
JNK3 and/or -2 assays are performed in 96 well NM plates: incubation of 0.5 μg of recombinant, pre-activated GST-JNK3 or GST-JNK2 with 1 μg of recombinant, biotinylated GST-c-Jun and 2 μM ^33γ-ATP (2 nCi/μl), in the presence or absence of compounds according to formula I and in a reaction volume of 50 μl containing 50 mM Tris-HCl, pH 8.0; 10 mM MgCl2; 1 mM Dithiothreitol, and 100 μM NaVO4. The incubation is performed for 120 min. at R.T and stopped upon addition of 200 μl of a solution containing 250 μg of Streptavidine-coated SPA beads (Amersham, Inc.)*, 5 mM EDTA, 0.1% Triton X-100 and 50 μM ATP, in phosphate saline buffer. After incubation for 60 minutes at RT, beads are sedimented by centrifugation at 1500×g for 5 minutes, resuspended in 200 μl of PBS containing 5 mM EDTA, 0.1% Triton X-100 and 50 μM ATP and the radioactivity measured in a scintillation β counter, following sedimentation of the beads as described above. By replacing biotinylated GST-c Jun with biotinylated GST-1ATF2 or biotinylated myelin basic protein, this assay may also be used to measure inhibition of pre-activated p38 and ERK MAP Kinases, respectively.

The subject of assay [2] is Hela luciferase reporter-c-Jun (HLR-c-Jun) cell lines. Description: C-Jun reporter assay. Type of assay: cell-based. The conditions noted are these: Homo sapiens, MEKK-1 transfected HLR-c-Jun cells. From the text: The phosphorylation of the transcriptional factor, c-jun, by JNK in the MAP kinase signal transduction pathway can be followed via a trans-reporting system such as the commercially available PathDetect® (32).
A trans-reporting system allows one to follow, via Luciferase activity, the activation status of a fusion trans-activator protein. The trans-activator protein consists of the activation domain of the transcriptional factor of interest (c-jun) fused with a yeast transcriptional activator, GAL4 DNA binding domain (dbd). The GAL4 dbd has the advantage that no known mammalian transcriptional factors can bind to it and therefore the background noise of the assay is very low.
In the present case, Hela luciferase reporter-c-Jun (HLR-c-Jun) cell lines which constitutively express GAL4-cJun were used.
The MEKK-1 gene was inserted. MEKK-1 is a MAPKKK which triggers the activation of JNK. Expression of wild type MEKK-1 is sufficient for JNK activation (33).
Once, JNK is activated it can induce the phosphorylation of the c-jun domain of the fusion trans-activator protein (GAL4dbd-cJun) which forms a dimer. The dimer is then is able to bind to a GAL4 upstream activating sequence (GAL4 UAS) of the reporter which activates Luciferase expression.
Luciferase expression is detected by luminescence using a simple assay such as Dual-Luciferase® Reporter Assay System (34) in which Renilla is used as a “control reporter”.
Inhibition of JNK is observed as a decrease in Luciferase expression and detected by a decrease in luminescence.
HLR-c-Jun cells are cultured in DMEM High Glc supplemented with 10% FCS (Sigma), 2 mM Glutamine (Gibco), P/S, Hygromycin b 100 μg/mL and G418 250 μg/mL.
The cell suspensions are diluted with medium to give about 3.5×10^6 cells/mL and […] of cell suspension are put onto 2 10 cm culture dishes containing 9 mL of culture medium.
Transfections • Control: 0.2 μg pTK Renilla, 5.8 μg pBluescript KS, 500 μl OPTIMEM (GOBCO), 18 μl Fugene 6. • Induced: 0.1 μg pMEKK1, 0.2 μg pTK Renilla, 5.7 μg pBluescript KS, 500 μl OPTIEM (GIBCO), 18 μl Fugene 6 30′ RT.
The transfection mixture is added to the plated cells. The plates are incubated over night at 37° C. in a humidified atmosphere of 5% CO2 in air.
A 96 wells plate (100 μl of culture medium per well) is prepared. Negative control (vehicle): 2 μl of DMSO is added to the 100 μl (in triplicate). […]
The medium is removed from the plate and the cells are washed two times with 100 μl PBS. […] The luminometer reading is recorded.
−50 μl of Luciferase Assay Reagent II are injected and readings are recorded at 5 and 10 minutes.
50 μl of Stop & Glo® Reagent are injected and readings are recorded at 5 and 10 minutes.
The relative luminescence is then measured: RLU Luciferase/RLU Renilla.

GST-JNK3, sequence (P53779 whole entry): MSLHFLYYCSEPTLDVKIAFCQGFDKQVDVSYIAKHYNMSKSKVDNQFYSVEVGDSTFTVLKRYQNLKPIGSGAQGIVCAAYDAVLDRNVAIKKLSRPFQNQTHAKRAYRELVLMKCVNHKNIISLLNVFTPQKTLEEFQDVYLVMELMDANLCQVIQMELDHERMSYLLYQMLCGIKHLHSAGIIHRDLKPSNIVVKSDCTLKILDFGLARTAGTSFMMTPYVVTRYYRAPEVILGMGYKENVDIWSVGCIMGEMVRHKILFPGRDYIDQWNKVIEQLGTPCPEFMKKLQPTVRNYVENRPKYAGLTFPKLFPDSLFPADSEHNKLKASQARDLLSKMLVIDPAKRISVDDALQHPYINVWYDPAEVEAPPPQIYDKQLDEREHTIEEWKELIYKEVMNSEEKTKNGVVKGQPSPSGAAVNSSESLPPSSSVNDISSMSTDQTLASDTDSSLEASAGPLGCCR

In the case of `COc1cccc(C(=O)NCc2ccc(S(=O)(=O)N3CCC(NCc4ccc(C(F)(F)F)cc4)CC3)s2)c1` [Example 1, 3-Methoxy-N-{[5-({4-[(4-trifluoromethylbenzyl)amino]piperidin-1-yl}sulfonyl)thien-2-yl]methyl}benzamide], the results for the IC50 in assay [1] and in assay [2] were below 600 nM and below 700 nM, respectively.

For the origin of these results see patent US7544700B2, “Pharmaceutically active sulfonamide derivatives bearing both lipophilic and ionisable moieties as inhibitors of protein JunKinases” (Laboratoires Serono SA, priority 2000, dated 2009).
